Test results as given in patent US6734211B1, “Compositions and methods for promoting nerve regeneration” (Oregon Health & Sciences University, priority 1999, dated 2004).

Experiments:
[1] = tested on: SH-SY5Y human neuroblastoma cells; assay: Neurite outgrowth of SH-SY5Y cells in the presence of NGF; assay type: cell-based; conditions: for Mean Length of Top 50% of Neuritic Processes: 168 hours; for neurite outgrowth, effect of the compound: with NGF, concentration dependence
Protocol: This Example illustrates that FK506 and geldanamycin promote nerve regeneration by a common mechanism. SH-SY5Y human neuroblastoma cells were maintained in DMEM medium (GIBCO) supplemented with 10% fetal calf serum (SIGMA), 50 IU/mL penicillin, and […] streptomycin (GIBCO) at 37° C. in 7% CO2. Cells were plated in six-well plates at 1×10^6 cells/well and treated with […] aphidicolin (SIGMA). At five days, cells were washed, treated with nerve growth factor (NGF) (Boehringer Mannheim, Indianapolis, Ind.) at 10 ng/mL ([…]) (Calbiochem-Novabiochem Int'l., La Jolla, Calif.) and/or geldanamycin (0.1, 1, and 10 nM) (Calbiochem-Novabiochem, La Jolla, Calif.) dissolved in the DMEM medium. Media was changed at 96 hours and replaced with fresh media containing the compounds (NGF plus FK506 and/or geldanamycin) for an additional 72 hours (total time, 168 hours). The top 50% of axonal lengths were selected for statistical analysis. All experiments were run in duplicate wells and repeated at least twice for reproducibility.
(§1) For analysis of neurite process length of cells, 20 fields per well were randomly photographed at 72 and 168 hours. Neurite lengths were measured on photographic prints using a Houston Instrument HI-PAD digitizing tablet connected to an IBM XT computer with appropriate software (Bioquant IV, R&M Biometrics, Nashville, Tenn.); only those processes greater than two times the cell body length were measured. Data from identically treated wells were not different and were therefore combined. […] Histograms were compared using a Mann-Whitney U test, which makes no assumptions about the shape of the distribution.
Neuroblastoma SH-SY5Y cells were used to examine human neurite outgrowth in vitro and to explore which neuroimmunophilin mediates the effect.

[2] = tested on: hippocampal neurons of FKBP-12 knockout mice; assay: Axonal length in primary neuronal hippocampal cultures from FKBP-12 knockout mice; assay type: cell-based
Protocol: (§2) FKBP-12 knockout mice (Shou, et al., Nature 391:489, 1998) were used to test whether FKBP-12 is necessary for FK506's ability to increase nerve elongation. Such mice usually die from severe cardiomyopathy between embryonic day 14.5 (E14.5) and birth, consistent with the known association between FKBP-12 and calcium release channels. […] Primary neuronal hippocampal cultures were prepared from E18.5 homozygote FKBP-12 knockout and wild-type mice.

[3] = tested on: hippocampal neurons of wild-type mice; assay: Axonal length in primary neuronal hippocampal cultures from wild-type mice; assay type: cell-based
Protocol: as §2

sciatic nerve = conditions: rat, following a sciatic nerve crush lesion; cited from earlier work
hippocampal cells = assay: Neurite outgrowth of hippocampal cells after 72 hours; assay type: cell-based
Protocol: as §1
Utilizing the in vitro assay described in Example 2, the effect of radicicol on neurite outgrowth was investigated. Hippocampal cells were treated with radicicol at a concentration of 0.1 ng/mL and at a concentration of 10 ng/mL. The neurite outgrowth for radicicol treated cells was compared to the outgrowth for untreated cells and for cells treated with 10 ng/mL of NGF.
Utilizing the in vitro assay described in Example 2, the effect of heat alone or in combination with various compounds on neurite outgrowth was investigated. […] FIG. 5 also illustrates that a combination of heat treatment and treatment with both NGF, and Hsp-90 antibodies is not as effective as the combination of heat and NGF treatment. […]

[4] = geldanamycin 10 nM co-treatment

## C=CC[C@@H]1/C=C(\C)C[C@H](C)C[C@H](OC)[C@H]2O[C@@](O)(C(=O)C(=O)N3CCCC[C@H]3C(=O)O[C@H](/C(C)=C/[C@@H]3CC[C@@H](O)[C@H](OC)C3)[C@H](C)[C@@H](O)CC1=O)[C@H](C)C[C@@H]2OC [FK506]
[1]; FK506 10 nM + NGF 10 ng/mL
  Mean Length of Top 50% of Neuritic Processes: 156 µm
[1]; FK506 10 pM-10 nM
  neurite outgrowth (cumulative histograms of neurite lengths): increases neurite outgrowth
[1]; FK506 100 nM
  neurite outgrowth (cumulative histograms of neurite lengths): less effective
[1]; FK506 1000 nM or greater
  neurite outgrowth (cumulative histograms of neurite lengths): neurite outgrowth was inhibited
[1]
  neurite outgrowth, effect of the compound: stimulate neurite outgrowth in a concentration dependent manner
[2]; FK506-treated cultures, FKBP-12 knockout, mean±S.E.M.
  Mean axonal lengths of hippocampal neurons: 264±18.2
[2]; FKBP-12 knockout cells
  increase over non-treated values: 30%
[3]; FK506-treated cultures, wild-type, mean±S.E.M.
  Mean axonal lengths of hippocampal neurons: 276±11.1
[3]; wild-type cells
  increase over non-treated values: 26%
Sciatic nerve
  functional recovery and axonal regeneration: speed functional recovery and axonal regeneration in the rat in a dose-dependent manner

## COC1=C2C[C@@H](C)C[C@H](OC)[C@H](O)[C@@H](C)/C=C(\C)[C@H](OC(N)=O)[C@@H](OC)/C=C\C=C(/C)C(=O)NC(=CC1=O)C2=O [Geldanamycin, geldanamycin]
[1]; geldanamycin 1 nM + NGF 10 ng/mL
  Mean Length of Top 50% of Neuritic Processes: 128 µm
[1]; geldanamycin 10 nM + NGF 10 ng/mL
  Mean Length of Top 50% of Neuritic Processes: 110 µm
[1]; geldanamycin 0.1 nM co-treatment
  effect on neurite outgrowth promotion by FK506, dexamethasone or β-estradiol: less effective in inhibiting the neurite outgrowth-promoting effect of all these compounds
[1]; [4]
  effect on neurite outgrowth promotion by FK506, dexamethasone or β-estradiol: inhibited neurite outgrowth promotion by FK506 , dexamethasone or β-estradiol
  effect on neurite outgrowth promotion by FKBP-52 antibody: enhanced the neurite outgrowth-promoting effect of the FKBP-52 antibody
[1]; geldanamycin 0.1-10 nM alone
  neurite outgrowth: increased neurite outgrowth in a concentration-dependent fashion
[1]
  neurite outgrowth, effect of the compound: stimulate neurite outgrowth in a concentration dependent manner

## COc1cccc(-c2cc(=O)c3ccccc3o2)c1N [PD 098059]
Hippocampal cells; 2 concentrations
  effect on neurite outgrowth by NGF and FK-506 (FIG. 6): blocks neurite outgrowth by NGF and FK-506 in a concentration dependent fashion
  effect on neurite outgrowth by radicicol (FIG. 7): blocks the action of radicicol in a concentration dependent fashion
Hippocampal cells; highest concentration
  effect on neurite outgrowth by radicicol (FIG. 7): almost completely blocks activity

## [Na+].[Na+].[O]=[Mo](=[O])([O-])[O-] [molybdate, sodium molybdate]
[1]; molybdate 20 mM
  effect on neurite outgrowth promotion by FK506: reduced the neurite outgrowth promotion elicited by FK506
  effect on neurite outgrowth promotion by FKBP-52 antibody: inhibited the neurite outgrowth-promoting effects of FKBP-52 antibody
  effect on neurite outgrowth promotion by β-estradiol and geldanamycin: completely [Mann-Whitney U test (α=0.05)] inhibited the neurite outgrowth-promoting effect of β-estradiol and geldanamycin
  neurite outgrowth-promoting effect of molybdate in the presence of dexamethasone: significantly [Mann-Whitney U test (α=0.05)] reduced compared to molybdate alone
[1]; molybdate 20 mM itself
  neurite outgrowth: agonist effect on neurite outgrowth

## C[C@@H]1C[C@H]2O[C@@H]2/C=C\C=C\C(=O)Cc2c(Cl)c(O)cc(O)c2C(=O)O1 [radicicol]
Hippocampal cells; radicicol 0.1 ng/mL and 10 ng/mL vs NGF 10 ng/mL
  neurite outgrowth (cumulative histogram, FIG. 3): more effective than NGF alone in stimulating outgrowth

## C[C@]12CC[C@@H]3c4ccc(O)cc4CC[C@H]3[C@@H]1CC[C@@H]2O [β-estradiol]
[1]; 50 nM each
  neurite outgrowth compared with dexamethasone: greater positive effect on neurite outgrowth than dexamethasone (50 nM)
[1]
  neurite outgrowth, effect of the compound: significantly increased neurite outgrowth in SH-SY5Y cells in a concentration-dependent manner

B1: NGF: nerve growth factor (Boehringer Mannheim) (protein, UniProt P01139 122-241, looked up)
Beta-nerve growth factor: SSTHPVFHMGEFSVCDSVSVWVGDKTTATDIKGKEVTVLAEVNINNSVFRQYFFETKCRASNPVESGCRGIDSKHWNSYCTTTHTFVKALTTDEKQAAWRFIRIDTACVCVLSRKATRRG
modifications: Beta-nerve growth factor
[1]; NGF 10 ng/mL alone
  Mean Length of Top 50% of Neuritic Processes: 108 µm
Hippocampal cells; NGF in combination with heat
  neurite outgrowth (cumulative histogram, FIG. 4): more effective than either heat or NGF treatment alone in stimulating neurite outgrowth
